Laboratory results from the NIST ThermoML archive (doi:10.1021/je200851a).

Test: excess molar enthalpy (molar enthalpy of mixing); xn = mol fraction of the nth substance listed
Details: 298.15 K, 101 kPa, Liquid, Calvet calorimetry

CCCCCCCCC [nonane] + CCO
Details	excess molar enthalpy [kcal/mol]
x2 = 0.0507	0.087
x2 = 0.1378	0.132
x2 = 0.2453	0.156
x2 = 0.4164	0.168
x2 = 0.5022	0.162
x2 = 0.586	0.156
x2 = 0.6518	0.151
x2 = 0.6895	0.143
x2 = 0.749	0.13
x2 = 0.7877	0.12
x2 = 0.8433	0.1
x2 = 0.8715	0.0899
x2 = 0.9065	0.0715
x2 = 0.9296	0.0574
x2 = 0.9562	0.0387
